In the NIST ThermoML archive (doi:10.1007/s10765-010-0766-0):

Assay: molar heat capacity at constant volume; wn = mass fraction of the nth substance listed
Settings: Liquid, Vacuum adiabatic calorimetry, w2 = 0.4981

FC(F)C(F)(F)F [pentafluoroethane] + FCF
Settings	molar heat capacity at constant volume [J/K/mol]
357.15 K, 9042 kPa	82.22
357.15 K, 9048 kPa	82.43
357.15 K, 16243 kPa	68.41
357.15 K, 16254 kPa	69.93
357.15 K, 16277 kPa	69.42
358.15 K, 9284 kPa	81.71
358.15 K, 9290 kPa	83.6
358.15 K, 16617 kPa	69.79
358.15 K, 16628 kPa	70.73
358.15 K, 16652 kPa	69.13
359.15 K, 9527 kPa	82.29
359.15 K, 9532 kPa	83.09
359.15 K, 16990 kPa	69.86
359.15 K, 17003 kPa	71.24
359.15 K, 17027 kPa	67.9
360.15 K, 9770 kPa	82.07
360.15 K, 9775 kPa	82.29
360.15 K, 17365 kPa	69.42
360.15 K, 17377 kPa	68.55
360.15 K, 17401 kPa	69.64
361.15 K, 10013 kPa	81.2
361.15 K, 10019 kPa	82.73
361.15 K, 17739 kPa	70.08
361.15 K, 17752 kPa	71.46
361.15 K, 17776 kPa	68.48
362.15 K, 10256 kPa	82.65
362.15 K, 10262 kPa	83.31
362.15 K, 18113 kPa	69.42
362.15 K, 18127 kPa	71.17
362.15 K, 18151 kPa	69.06
363.15 K, 10501 kPa	80.69
363.15 K, 10506 kPa	82.22
363.15 K, 18487 kPa	70.59
363.15 K, 18501 kPa	69.57
363.15 K, 18526 kPa	69.79
364.15 K, 10745 kPa	81.78
364.15 K, 10751 kPa	81.56
364.15 K, 18862 kPa	69.2
364.15 K, 18876 kPa	70.8
364.15 K, 18899 kPa	68.91
365.15 K, 10990 kPa	81.49
365.15 K, 10996 kPa	82.29
365.15 K, 19236 kPa	69.57
365.15 K, 19250 kPa	69.79
365.15 K, 19274 kPa	70.08
366.15 K, 11235 kPa	80.04
366.15 K, 11241 kPa	81.78
366.15 K, 19610 kPa	70
366.15 K, 19625 kPa	70.22
366.15 K, 19649 kPa	68.99
367.15 K, 11480 kPa	81.49
367.15 K, 11486 kPa	81.93
367.15 K, 19985 kPa	69.06
367.15 K, 20000 kPa	69.86
367.15 K, 20025 kPa	68.48
368.15 K, 11726 kPa	81.42
368.15 K, 11732 kPa	82.07
368.15 K, 20360 kPa	69.35
368.15 K, 20375 kPa	69.71
368.15 K, 20400 kPa	68.77
369.15 K, 11972 kPa	79.89
369.15 K, 11979 kPa	82.73
369.15 K, 20734 kPa	69.42
369.15 K, 20750 kPa	70
369.15 K, 20776 kPa	68.7
370.15 K, 12219 kPa	80.69
370.15 K, 12225 kPa	80.76
370.15 K, 21109 kPa	70.8
370.15 K, 21125 kPa	69.35
370.15 K, 21150 kPa	69.2
371.15 K, 12465 kPa	80.25
371.15 K, 12472 kPa	82.07
371.15 K, 21484 kPa	70.3
371.15 K, 21500 kPa	71.82
371.15 K, 21525 kPa	68.55
372.15 K, 12712 kPa	80.11
372.15 K, 12719 kPa	81.78
372.15 K, 21859 kPa	70.44
372.15 K, 21875 kPa	69.64
372.15 K, 21901 kPa	69.42
373.15 K, 12959 kPa	80.91
373.15 K, 12966 kPa	82.43
373.15 K, 22234 kPa	69.86
373.15 K, 22250 kPa	71.17
373.15 K, 22277 kPa	69.57
374.15 K, 13207 kPa	80.11
374.15 K, 13213 kPa	81.71
374.15 K, 22609 kPa	70.59
374.15 K, 22625 kPa	70.37
374.15 K, 22654 kPa	69.2
375.15 K, 13454 kPa	80.04
375.15 K, 13461 kPa	81.85
375.15 K, 22984 kPa	71.68
375.15 K, 23000 kPa	72.33
375.15 K, 23029 kPa	70.15
376.15 K, 13702 kPa	80.76
376.15 K, 13709 kPa	82.87
376.15 K, 23359 kPa	71.6
376.15 K, 23375 kPa	71.02
376.15 K, 23406 kPa	70.08
377.15 K, 13950 kPa	82.14
377.15 K, 13957 kPa	81.34
377.15 K, 23734 kPa	71.24
377.15 K, 23750 kPa	71.6
377.15 K, 23780 kPa	70.88
378.15 K, 14198 kPa	80.25
378.15 K, 14205 kPa	80.18
378.15 K, 24109 kPa	72.04
378.15 K, 24125 kPa	71.82
378.15 K, 24155 kPa	70.51
379.15 K, 14447 kPa	81.2
379.15 K, 14454 kPa	81.85
379.15 K, 24484 kPa	72.04
379.15 K, 24500 kPa	70.95
379.15 K, 24531 kPa	70.22
380.15 K, 14696 kPa	80.47
380.15 K, 14702 kPa	80.84
380.15 K, 24858 kPa	72.11
380.15 K, 24875 kPa	71.6
380.15 K, 24906 kPa	70.88
381.15 K, 14944 kPa	80.54
381.15 K, 14951 kPa	81.93
381.15 K, 25233 kPa	72.33
381.15 K, 25250 kPa	71.6
381.15 K, 25282 kPa	68.91
382.15 K, 15194 kPa	81.2
382.15 K, 15200 kPa	81.2
382.15 K, 25608 kPa	70.51
382.15 K, 25625 kPa	71.75
382.15 K, 25657 kPa	69.64
383.15 K, 15443 kPa	80.18
383.15 K, 15449 kPa	81.13
383.15 K, 25983 kPa	72.33
383.15 K, 26000 kPa	71.75
383.15 K, 26033 kPa	69.93
384.15 K, 15692 kPa	82.29
384.15 K, 15699 kPa	80.62
384.15 K, 26358 kPa	72.69
384.15 K, 26375 kPa	72.84
384.15 K, 26408 kPa	70
385.15 K, 15942 kPa	79.6
385.15 K, 15948 kPa	82.58
385.15 K, 26733 kPa	72.55
385.15 K, 26750 kPa	72.4
385.15 K, 26784 kPa	69.28
386.15 K, 16192 kPa	81.2
386.15 K, 16198 kPa	83.09
386.15 K, 27107 kPa	72.4
386.15 K, 27125 kPa	72.77
386.15 K, 27159 kPa	68.48
387.15 K, 16442 kPa	79.31
387.15 K, 16448 kPa	81.34
387.15 K, 27482 kPa	73.57
387.15 K, 27500 kPa	73.57
387.15 K, 27533 kPa	70.66
388.15 K, 16692 kPa	80.62
388.15 K, 16698 kPa	82.51
388.15 K, 27856 kPa	73.71
388.15 K, 27874 kPa	73.71
388.15 K, 27907 kPa	69.06
389.15 K, 16942 kPa	80.76
389.15 K, 16948 kPa	82.07
389.15 K, 28231 kPa	74.08
389.15 K, 28249 kPa	73.86
389.15 K, 28282 kPa	70.22
390.15 K, 17192 kPa	80.84
390.15 K, 17198 kPa	83.74
390.15 K, 28605 kPa	74.08
390.15 K, 28624 kPa	74.73
390.15 K, 28657 kPa	70.3
391.15 K, 17442 kPa	81.05
391.15 K, 17448 kPa	83.67
391.15 K, 28979 kPa	73.78
391.15 K, 28998 kPa	72.77
391.15 K, 29032 kPa	70.44
392.15 K, 17692 kPa	81.05
392.15 K, 17698 kPa	81.34
392.15 K, 29354 kPa	72.77
392.15 K, 29373 kPa	71.31
392.15 K, 29407 kPa	68.84
393.15 K, 17943 kPa	79.38
393.15 K, 17949 kPa	81.27
393.15 K, 29728 kPa	74
393.15 K, 29782 kPa	72.19
394.15 K, 18193 kPa	82
394.15 K, 18199 kPa	80.84
395.15 K, 18444 kPa	80.18
395.15 K, 18450 kPa	83.89
396.15 K, 18701 kPa	80.62
397.15 K, 18951 kPa	82.36
